From patent US20260240831A1, “CANCER STRATIFICATION AND TREATMENT” (Deutsches Krebsforschungszentrum Stiftung des öffentlichen …, priority 2023, published 2026) come the findings set out here.

This experiment deals with GBM cells for SFRP1 overexpression. Briefly: SFRP1 inhibitor treatment of tumour-bearing human brain organoids, KI-67 immunohistochemistry. To be noted: 25 μM, 2 days, vs DMSO control; SFRP1-overexpressing GBM cells in human brain organoids. It is filed as cell-based. As to the method: Lentivirally transduced GBM cells for SFRP1 overexpression were injected into day 116-old human brain organoids and cultured in brain Organoid Differentiation Medium with Vitamin A. Injected organoids were maintained for 15 days on an orbital shaker (70 RPM) at 5% CO2 and 37° C. After 15 days, organoids were transferred to culturing medium supplemented with 25 μM of SFRP1 inhibitor WAY-316606 or 25 μM DMSO as a control. Tumour-bearing organoids were maintained for 2 more days and then fixed with 4% formaldehyde for 1 hour at 4° C. on a roller. Fixed organoids were first placed in 10% sucrose in PBS until tissues sank, then transferred to 30% sucrose in PBS. Organoids were then embedded in OCT compound (Tissue-Tek). […]
Confocal images of human brain organoids injected with GBM m-Cherry- and sFRP1-expressing cells that were treated with DMSO or sFRP1 inhibitor. Organoids were stained against Ki67 and mCherry and Ki67+/mCherry+ cells were quantified. […] The tumor origin of segmented cells was determined by assessing background corrected mean fluorescence intensities of the 2D integrated mCherry signal. The count of detected Ki67+/mCherry+ cells was then normalized to the imaged organoid volume yielding a density metric representing cycling tumor cells in both WAY inhibitor treated and DMSO control samples.

Regarding `O=S(=O)(NC1CCNCC1)c1cc(S(=O)(=O)c2ccccc2)ccc1C(F)(F)F` [WAY-316606, 5-(phenylsulfonyl)-N-4-piperidinyl-2-(trifluoromethyl)-benzenesulfonamide], the “number of proliferating (KI-67+/mCherry+) tumor cells” value is “drastically increases the number of proliferating cells”.
